Molecular target: T1, NLRP3 (Homo sapiens, UniProt Q96P20)
T1 construct: Seed THP-1 cells (5.56*10^5 cells/mL) containing 1.0 ug/mL LPS; endogenous in cells; host or cells: THP-1 cells
Assay: THP-1 cell assay (LPS priming, nigericin), IL1β release by HTRF; called pyroptosis assay, THP IC50
Type: cell-based
Settings: NLRP3 inhibitory activity; THP-1 cells, 1.0 ug/mL LPS, compound 3 hrs, nigericin 5 uM 1 hr, IL1β in supernatant
Experimental: The following method was used for compound screening. • 1. Seed THP-1 cells (5.56*10^5 cells/mL) containing 1.0 ug/mL LPS (SIGMA, L6529) in 45 uL RPMI 1640 medium (without FBS) into 384-well plate (Thermo Scientific, 164688). • 2. Add 5 uL compound (10 doses starting from 5 uM, 1:3 dilution) or vehicle (0.05% DMSO in medium) to the appropriate wells. • 3. Centrifuge the plates at 1000 rpm for 2 mins and incubate for 3 hrs at 37° C., 5% CO2. • 4. Add 5 uL nigericin (MEC, HY-100381) (final conc. 5 uM) to sample wells and positive control wells; add 5 uL RPMI 1640 medium to negative control wells. • 5. Centrifuge plates at 1000 rpm for 2 mins and incubate for 1 hr at 37° C., 5% CO2. • 6. At the end of the incubation period, centrifuge plates at 1000 rpm for 6 mins and transfer 8 uL supernatant into 384-well assay plates (PerkinElmer, 6008280). • 7. Add 8 ul RPMI 1640 medium into each well and spin down for 10 secs. • 8. Prepare the standard solutions and pre-mixed IL1β antibody solution of Human […] kits (PerkinElmer, 62HIL1BPEH) according to the instruction. • 9. Add 16 uL standard solutions into clear wells of 384-well assay plates. • 10. Add 4 uL pre-mixed IL1β antibody solution to all wells including sample wells, positive control wells, negative control wells and standard solutions wells. • 11. Seal the plates, spin down for 10 secs, incubation for overnight at RT and read on an HTRF® compatible reader (BMG LABTECH, PHERAstar FS). • 12. The concentrations of IL1β for treated wells are calculated by the standard curve. • 13. The IC50 data is fitted to a non-liner regression equation (log inhibitor vs. response—Variable slope four parameters)).

T1 sequence (Q96P20 whole entry): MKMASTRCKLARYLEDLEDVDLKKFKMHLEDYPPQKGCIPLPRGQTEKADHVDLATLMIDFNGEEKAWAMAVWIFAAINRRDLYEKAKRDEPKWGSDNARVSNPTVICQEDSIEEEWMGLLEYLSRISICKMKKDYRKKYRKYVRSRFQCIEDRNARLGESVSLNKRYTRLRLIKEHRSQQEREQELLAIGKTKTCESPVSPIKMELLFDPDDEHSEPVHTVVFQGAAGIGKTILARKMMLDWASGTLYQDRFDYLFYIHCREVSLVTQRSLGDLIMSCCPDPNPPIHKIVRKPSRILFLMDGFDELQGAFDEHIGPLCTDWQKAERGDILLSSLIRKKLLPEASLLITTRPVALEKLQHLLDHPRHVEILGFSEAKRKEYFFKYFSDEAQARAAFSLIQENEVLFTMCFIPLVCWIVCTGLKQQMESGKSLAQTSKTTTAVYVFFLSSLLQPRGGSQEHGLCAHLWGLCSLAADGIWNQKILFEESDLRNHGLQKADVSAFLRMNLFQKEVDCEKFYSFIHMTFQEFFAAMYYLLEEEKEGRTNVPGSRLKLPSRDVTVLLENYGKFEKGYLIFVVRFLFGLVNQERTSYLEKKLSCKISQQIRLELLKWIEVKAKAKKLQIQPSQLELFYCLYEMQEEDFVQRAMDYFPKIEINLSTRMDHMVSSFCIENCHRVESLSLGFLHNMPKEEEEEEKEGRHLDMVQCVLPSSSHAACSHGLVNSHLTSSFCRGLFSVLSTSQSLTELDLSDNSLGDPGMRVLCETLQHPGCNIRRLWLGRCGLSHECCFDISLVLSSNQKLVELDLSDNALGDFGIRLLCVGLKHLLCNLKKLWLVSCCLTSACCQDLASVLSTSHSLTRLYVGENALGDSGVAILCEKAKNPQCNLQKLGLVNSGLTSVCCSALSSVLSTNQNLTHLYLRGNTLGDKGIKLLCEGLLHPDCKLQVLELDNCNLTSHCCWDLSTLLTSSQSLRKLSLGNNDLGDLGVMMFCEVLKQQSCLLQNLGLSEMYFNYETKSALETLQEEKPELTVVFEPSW

SMILES	IC50 [nM]
N#Cc1cc2c(c(NC(=O)NS(=O)(=O)c3cnn(CC4CC4)c3)c1-c1ccn3cncc3c1)CCC2 [Example 13, N-((6-cyano-5-(imidazo[1,5-a]pyridin-7-yl)-2,3-dihydro-1H-inden-4-yl)carbamoyl)-1-(cyclopropylmethyl)-1H-pyrazole-4-sulfonamide]	≤ 30
Cc1cc2c(c(NC(=O)NS(=O)(=O)c3cc(CC4CC4)n(C)n3)c1-c1ccn3nccc3c1)CCC2 [Example 17, 5-(cyclopropylmethyl)-1-methyl-N-((6-methyl-5-(pyrazolo[1,5-a]pyridin-5-yl)-2,3-dihydro-1H-inden-4-yl)carbamoyl)-1H-pyrazole-3-sulfonamide]	≤ 30
Cc1cc2c(c(NC(=O)NS(=O)(=O)c3cnn(CC4CC4)c3)c1-c1ccc3cncn3c1)CCC2 [Example 20, 1-(cyclopropylmethyl)-N-((5-(imidazo[1,5-a]pyridin-6-yl)-6-methyl-2,3-dihydro-1H-inden-4-yl)carbamoyl)-1H-pyrazole-4-sulfonamide]	30 to 300
O=C(Nc1c2c(cc(F)c1-c1ccn3nccc3c1)CCC2)NS(=O)(=O)c1ccn(C2CC2)n1 [Example 25, 1-cyclopropyl-N-((6-fluoro-5-(pyrazolo[1,5-a]pyridin-5-yl)-2,3-dihydro-1H-inden-4-yl)carbamoyl)pyrazole-3-sulfonamide]	≤ 30
CO[C@@H](C)Cn1ccc(S(=O)(=O)NC(=O)Nc2c3c(cc(C)c2-c2ccn4nccc4c2)CCC3)n1 [Example 26, (S)-1-(2-methoxypropyl)-N-((6-methyl-5-(pyrazolo[1,5-a]pyridin-5-yl)-2,3-dihydro-1H-inden-4-yl)carbamoyl)-1H-pyrazole-3-sulfonamide]	≤ 30
CN(c1cncc(S(=O)(=O)NC(=O)Nc2c(-c3ccn4nccc4c3)ccc3c2CCC3)c1)C1CC1 [Example 30, 5-(cyclopropyl(methyl)amino)-N-((5-(pyrazolo[1,5-a]pyridin-5-yl)-2,3-dihydro-1H-inden-4-yl)carbamoyl)pyridine-3-sulfonamide]	30 to 300
O=C(Nc1c(-c2ccn3nccc3c2)ccc2c1CCC2)NS(=O)(=O)c1cncc(NC2CC2)c1 [Example 31, 5-(cyclopropylamino)-N-((5-(pyrazolo[1,5-a]pyridin-5-yl)-2,3-dihydro-1H-inden-4-yl)carbamoyl)pyridine-3-sulfonamide]	≤ 30
Cc1cc2c(c(NC(=O)NS(=O)(=O)c3ccnc(N4CCOCC4)c3)c1-c1ccn3nccc3c1)CCC2 [Example 32, N-((6-methyl-5-(pyrazolo[1,5-a]pyridin-5-yl)-2,3-dihydro-1H-inden-4-yl)carbamoyl)-2-morpholinopyridine-4-sulfonamide]	≤ 30
Cc1cc2c(c(NC(=O)NS(=O)(=O)c3cncc(OC4CC4)c3)c1-c1ccn3nccc3c1)CCC2 [Example 34, 5-cyclopropoxy-N-((6-methyl-5-(pyrazolo[1,5-a]pyridin-5-yl)-2,3-dihydro-1H-inden-4-yl)carbamoyl)pyridine-3-sulfonamide]	≤ 30
Cc1cc2c(c(NC(=O)NS(=O)(=O)c3cncc(OC4CCC4)c3)c1-c1ccn3nccc3c1)CCC2 [Example 35, 5-cyclobutoxy-N-((6-methyl-5-(pyrazolo[1,5-a]pyridin-5-yl)-2,3-dihydro-1H-inden-4-yl)carbamoyl)pyridine-3-sulfonamide]	≤ 30
Cc1cc2c(c(NC(=O)NS(=O)(=O)c3ccnc(C4CCC4)c3)c1-c1ccn3nccc3c1)CCC2 [Example 38, 2-cyclobutyl-N-((6-methyl-5-(pyrazolo[1,5-a]pyridin-5-yl)-2,3-dihydro-1H-inden-4-yl)carbamoyl)pyridine-4-sulfonamide]	30 to 300

Second part, the molecule after the results:

IC50 [nM]	SMILES
≤ 30	Cc1cc2c(c(NC(=O)NS(=O)(=O)c3cnn(C4CC4)c3)c1-c1ccn3nccc3c1)CCC2 [Example 14, 1-cyclopropyl-N-((6-methyl-5-(pyrazolo[1,5-a]pyridin-5-yl)-2,3-dihydro-1H-inden-4-yl)carbamoyl)-1H-pyrazole-4-sulfonamide]
30 to 300	COC(c1cc(S(=O)(=O)NC(=O)Nc2c3c(cc(C)c2-c2ccn4nccc4c2)CCC3)nn1C)C1CC1 (centres unmarked) [Example 15, 5-(cyclopropyl(methoxy)methyl)-1-methyl-N-((6-methyl-5-(pyrazolo[1,5-a]pyridin-5-yl)2,3-dihydro-1H-inden-4-yl)carbamoyl)-1H-pyrazole-3-sulfonamide]
≤ 30	Cc1cc2c(c(NC(=O)NS(=O)(=O)c3cc(C(O)C4CC4)n(C)n3)c1-c1ccn3nccc3c1)CCC2 (centres unmarked) [Example 16, 5-(cyclopropyl(hydroxy)methyl)-1-methyl-N-((6-methyl-5-(pyrazolo[1,5-a]pyridin-5-yl)-2,3-dihydro-1H-inden-4-yl)carbamoyl)-1H-pyrazole-3-sulfonamide]
≤ 30	Cc1cc2c(c(NC(=O)NS(=O)(=O)c3cnn(CC4CC4)c3)c1-c1ccn3ccnc3c1)CCC2 [Example 18, 1-(cyclopropylmethyl)-N-((5-(imidazo[1,2-a]pyridin-7-yl)-6-methyl-2,3-dihydro-1H-inden-4-yl)carbamoyl)-1H-pyrazole-4-sulfonamide]
≤ 30	Cc1cc2c(c(NC(=O)NS(=O)(=O)c3cnn(CC4CC4)c3)c1-c1ccc3nccn3c1)CCC2 [Example 19, 1-(cyclopropylmethyl)-N-((5-(imidazo[1,2-a]pyridin-6-yl)-6-methyl-2,3-dihydro-1H-inden-4-yl)carbamoyl)-1H-pyrazole-4-sulfonamide]
≤ 30	Cc1cc2c(c(NC(=O)NS(=O)(=O)c3cnn(CC4CC4)c3)c1-c1ccc3ccnn3c1)CCC2 [Example 21, 1-(cyclopropylmethyl)-N-((6-methyl-5-(pyrazolo[1,5-a]pyridin-6-yl)-2,3-dihydro-1H-inden-4-yl)carbamoyl)-1H-pyrazole-4-sulfonamide]
> 2000	O=C(Nc1c(-c2cnc3ccnn3c2)ccc2c1CCC2)NS(=O)(=O)c1cnn(CC2CC2)c1 [Example 22, 1-(cyclopropylmethyl)-N-((5-(pyrazolo[1,5-a]pyrimidin-6-yl)-2,3-dihydro-1H-inden-4-yl)carbamoyl)-1H-pyrazole-4-sulfonamide]
≤ 30	Cc1cc2c(c(NC(=O)NS(=O)(=O)c3ccn(C4CCC4)n3)c1-c1ccn3nccc3c1)CCC2 [Example 23, 1-cyclobutyl-N-((6-methyl-5-(pyrazolo[1,5-a]pyridin-5-yl)-2,3-dihydro-1H-inden-4-yl)carbamoyl)-1H-pyrazole-3-sulfonamide]
≤ 30	O=C(Nc1c2c(cc(F)c1-c1ccn3nccc3c1)CCC2)NS(=O)(=O)c1ccn(CC2CC2)n1 [Example 24, 1-(cyclopropylmethyl)-N-((6-fluoro-5-(pyrazolo[1,5-a]pyridin-5-yl)-2,3-dihydro-1H-inden-4-yl)carbamoyl)-1H-pyrazole-3-sulfonamide]
≤ 30	CO[C@H](C)Cn1ccc(S(=O)(=O)NC(=O)Nc2c3c(cc(C)c2-c2ccn4nccc4c2)CCC3)n1 [Example 27, (R)-1-(2-methoxypropyl)-N-((6-methyl-5-(pyrazolo[1,5-a]pyridin-5-yl)-2,3-dihydro-1H-inden-4-yl)carbamoyl)-1H-pyrazole-3-sulfonamide]
30 to 300	Cc1cc2c(c(NC(=O)NS(=O)(=O)c3cncc(N(C)C4CC4)c3)c1-c1ccn3nccc3c1)CCC2 [Example 29, 5-(cyclopropyl(methyl)amino)-N-((6-methyl-5-(pyrazolo[1,5-a]pyridin-5-yl)-2,3-dihydro-1H-inden-4-yl)carbamoyl)pyridine-3-sulfonamide]
≤ 30	Cc1cc2c(c(NC(=O)NS(=O)(=O)c3ccnc(OC4CC4)c3)c1-c1ccn3nccc3c1)CCC2 [Example 33, 2-cyclopropoxy-N-((6-methyl-5-(pyrazolo[1,5-a]pyridin-5-yl)-2,3-dihydro-1H-inden-4-yl)carbamoyl)pyridine-4-sulfonamide]
30 to 300	Cc1cc2c(c(NC(=O)NS(=O)(=O)c3cncc(N(C)C4CCC4)c3)c1-c1ccn3nccc3c1)CCC2 [Example 36, 5-(cyclobutyl(methyl)amino)-N-((6-methyl-5-(pyrazolo[1,5-a]pyridin-5-yl)-2,3-dihydro-1H-inden-4-yl)carbamoyl)pyridine-3-sulfonamide]
≤ 30	Cc1cc2c(c(NC(=O)NS(=O)(=O)c3cncc(NC4CC4)c3)c1-c1ccn3nccc3c1)CCC2 [Example 37, 5-(cyclopropylamino)-N-((6-methyl-5-(pyrazolo[1,5-a]pyridin-5-yl)-2,3-dihydro-1H-inden-4-yl)carbamoyl)pyridine-3-sulfonamide]
30 to 300	Cc1cc2c(c(NC(=O)NS(=O)(=O)c3ccc(=O)n(CC4CC4)c3)c1-c1ccn3nccc3c1)CCC2 [Example 39, 1-(cyclopropylmethyl)-N-((6-methyl-5-(pyrazolo[1,5-a]pyridin-5-yl)-2,3-dihydro-1H-inden-4-yl)carbamoyl)-6-oxo-1,6-dihydropyridine-3-sulfonamide]
